Results on 3 compounds are retold here after EP1891957A1 (Sloan-Kettering Institute for Cancer Research, priority 1996, dated 1998).

“And” between values parts separate entries of the source, which are not always exact repeats. Identical values can stand only once. Like-named read-outs stand apart in the source and are kept apart here.

Data set [1] relates to B6D2F1 mice.
In data set [2] the test system is CD rats.
The conditions of data set [3]: dogs, 3 mg/kg i.v.
A short description of data set [4]: in vivo. The following applies: rat, iv.
The nature of data set [5]: in vivo. The following applies: dog, iv.
Data set [6] relates to MDA468. As to the kind of experiment: Cytotoxicity, 3 hour pulse-exposure, MDA468. The note with it: Homo sapiens.
The test system of data set [7] is SKLC-16. As to the kind of experiment: Cytotoxicity, 3 hour pulse-exposure, SKLC-16. The following applies: Homo sapiens.
Data set [8] relates to ZR-75-1. As to the kind of experiment: Cytotoxicity, 3 hour pulse-exposure, ZR-75-1. The note with it: Homo sapiens, ZR-75-1, 3 h.
For data set [9], the system named is SK-BRIII. As to the kind of experiment: Cytotoxicity, 3 hour pulse-exposure, SK-BRIII. The following applies: Homo sapiens.
Data set [10] has as its system human LX-1 lung cancer. The following applies: LX-1 xenograft, schedule and doses as Example 2; for Average Tumor Diameter (mm): nude mice.
Data set [11] deals with human A549 lung cancer. The note with it: A549 xenograft, schedule and doses as Example 2; for Average Tumor Diameter (mm): nude mice.
Excerpt: Example 2 was repeated using xenografts of human A549 lung cancer in nude mice.
The subject of data set [12] is human MX-1 mammary carcinoma. As to the kind of experiment: Xenografts of human MX-1 mammary carcinoma in nude mice. The note with it: MX-1 xenograft; for Average Tumor Diameter (mm): nude mice, once a day for five days starting three days after implantation, 10-propargyl-10dAM 3 mg/kg, MTX 2 mg/kg, EDX 1.5 mg/kg, measured 14 days after start of treatment; for Complete Regressions: mice with no measurable tumor 14 days after start of treatment / mice treated; for Complete Regressions / Cures: same doses; for Cures: tumor free mice three weeks after cessation of therapy / mice treated. On the technique in general: In xenograft studies the graft and the host belong to different species.

Take `C#CCC(Cc1cnc2nc(N)nc(N)c2n1)c1ccc(C(=O)N[C@@H](CCC(=O)O)C(=O)O)cc1` (stereo partly drawn) [10-propargyl-10dAM, 10-Propargyl-10-deazaaminopterin]: the mice died entry is reported as “four out of five” in data set [1] (400 mg/kg i.p. QWX3, days 19, 20, 23 and 24); “four out of five” in [1] (600 mg/kg i.p. QWX3, days 9, 18, 19 and 21). Also, the animals died entry in [2] (100 mg/kg i.v. QWX3, by day 23) is on record as “one out of the five”. Also, the rats died result in data set [2] (150 mg/kg i.v. QWX3, days 18, 20 and 23) is given as “three out of the five”; in data set [2] (200 mg/kg i.v. QWX3, days 12, 14, 15, 20 and 20), “all five”; in data set [2] (300 mg/kg i.v. QWX3, days 11, 11, 12, 12 and 14) it was “all five”. The LD10 result in data set [2] (i.v. QWX3, conservative estimate, median-effect plot) was “about 75 mg/kg”. The “metabolite (retention time 6.3 min) as part of the total urinary 10-propargyl-10dAM” value is listed as under 0.31% in data set [3] (urine at 1 hr) and under 3.5% in data set [3] (urine at 4 hr). The results for the LD50 in [4] and in data set [5] were about 110 mg/kg and about 8 mg/kg, respectively.
For the compound `CCC(Cc1cnc2nc(N)nc(N)c2n1)c1ccc(C(=O)N[C@@H](CCC(=O)O)C(=O)O)cc1` (stereo partly drawn) [EDX, edatrexate], the IC50 in [6] came out at 380 ± 50 nM; in data set [7], 260 ± 30 nM; in data set [8], 860 ± 100 nM; in [9], 990 ± 150 nM. Further, the “Average Tumor Diameter (mm)” value in data set [10] was 4.3 ± 2 mm; in data set [11], 6.8 ± 2 mm; in [12], 2.2 ± 1.1 mm. Besides, the “Complete Regressions” value is 3/10 in data set [10], 0/5 in [11] and 6/20 in data set [12]. Besides, the Cures in data set [10] was 1/10; in data set [11] it was 0/5; in [12] it was 2/20.
Regarding `CN(Cc1cnc2nc(N)nc(N)c2n1)c1ccc(C(=O)N[C@@H](CCC(=O)O)C(=O)O)cc1` [MTX, methotrexate], the “Average Tumor Diameter (mm)” value in data set [10] came out at 9.2 ± 2 mm; in data set [11], 8.3 ± 2 mm; in data set [12], 7.6 ± 0.8 mm. The “Complete Regressions” value in data set [10] is 0/10; in [11], 0/5; in data set [12], “no regressions and 0/10”. Moreover, the Cures in data set [10] is reported as 0/10; in [11] it was 0/5; in data set [12], 0/10.

A word on the LD50: it is the dose at which mortality reaches 50%. Lower therefore signals greater toxicity. The term IC50 denotes the concentration at which inhibition is half-maximal. A high value points to a need for much substance.
